Measured values taken from US20200399308A1, “COMPOUNDS AND METHODS FOR ELICITING ANTIMICROBIAL ACTIVITY” (Technion Research & Development Foundation Limited, priority 2018, published 2020).
Converted amounts (≈) assume the structure as drawn. Non-standard residues stand in square brackets, D forms with d. Residues, ends and D or L forms follow the SMILES beside them. *: point of attachment. 12Ado = NCCCCCCCCCCCC(=O)O; Decanoyl = CCCCCCCCCC(=O)*; Orn = NCCC[CH](N)C(=O)O

Experiments:
[1] = Charge at physiological pH (Q); type: physicochemical
[2] = Critical aggregation concentration by light scattering in PBS; type: physicochemical; details: light scattering in phosphate-buffered saline
Experimental: (§1) Organization of the compounds in aqueous solution was assessed by light-scattering measurements in phosphate buffered saline (PBS; 10 mM Na2HPO4, 150 mM NaCl, pH=7.0). Hemolytic assays were performed as described elsewhere, using fresh mouse red blood cells.
(§2) The mean value (±SD) is shown for Compound C; Minimum inhibitory concentration (MIC) of compounds required to inhibit bacterial proliferation after overnight incubation.

[3] = Hemolytic assay; type: cell-based; details: fresh mouse red blood cells (1%); hemolysis of 50% of mouse red blood cells (1%) after 3 hours in PBS; read-out: LC50, fifty percent lethal concentration (hemolysis)
Experimental: as §1, §2

[4] = test system: Escherichia coli 25922; assay: Minimal inhibitory concentration; type: cell-based; details: Ec 25922, overnight incubation, read-out: MIC
Experimental: (§3) Minimal inhibitory concentrations (MICs) were determined as previously described. […] MICs were determined by microdilution susceptibility testing in 96-well plates (by Nunc) using inocula of 10^5 bacteria per ml. Cell populations were evaluated by optical density measurements at 620 nm and were calibrated against a set of standards. Hundred (100) μl of a bacterial suspension were added to 100 μl of culture medium (control) or to 100 μl of culture medium containing various tested compound concentrations in 2-fold serial dilutions. Inhibition of proliferation was determined by optical density measurements at 620 nm after an incubation period of 24 hours at 37° C. Data were obtained from ≥2 independent experiments performed in duplicate.
as §2

[5] = test system: Escherichia coli ML35p; assay: Minimal inhibitory concentration; type: cell-based; details: Ec ML35p, overnight incubation
Experimental: as §3, §2

[6] = test system: Klebsiella pneumoniae 1287; assay: Minimal inhibitory concentration; type: cell-based; details: Kp 1287, overnight incubation, read-out: MIC
Experimental: as §3, §2

[7] = test system: Klebsiella pneumoniae C2 (carbapenemase 2-producing strain); assay: Minimal inhibitory concentration; type: cell-based; details: Kp C2, overnight incubation, read-out: MIC
Experimental: as §3, §2

[8] = test system: Pseudomonas aeruginosa 11662; assay: Minimal inhibitory concentration; type: cell-based; details: Pa 11662, overnight incubation, read-out: MIC
Experimental: as §3, §2

[9] = test system: Pseudomonas aeruginosa 11816; assay: Minimal inhibitory concentration; type: cell-based; details: Pa 11816, overnight incubation, read-out: MIC
Experimental: as §3, §2

[10] = test system: Salmonella enterica serovar Choleraesuis 7308; assay: Minimal inhibitory concentration; type: cell-based; details: CHOLERAESUIS / SC7308, SC 7308, overnight incubation, read-out: MIC
Experimental: as §3, §2

[11] = test system: Salmonella enterica serovar Typhimurium 14028; assay: Minimal inhibitory concentration; type: cell-based; details: ST 14028, overnight incubation, read-out: MIC
Experimental: as §3, §2

[12] = test system: K. pneumoniae; assay: Minimal bactericidal concentration; type: cell-based; details: Klebsiella pneumoniae
[13] = Maximum tolerated dose, single-dose subcutaneous administration; type: in vivo; details: subcutaneous 20 mg/kg, mice
Experimental: Mortality was monitored for 7 days thereafter. Pharmacokinetic studies were performed as described elsewhere.

[14] = test system: Escherichia coli 25922; assay: Mouse peritonitis-sepsis model; type: in vivo
Experimental: A mouse peritonitis-sepsis model was created as described elsewhere. Infection was obtained after intraperitoneal injection of bacteria from a logarithmic-phase culture. Infected mice were treated subcutaneously. The doses were selected to allow comparison with the reference compound and to remain below the maximum tolerated dose after double-dose administration. […] Briefly, mouse peritonitis sepsis model for in vivo studies were performed using male ICR mice ([…]) obtained from Envigo Laboratories (Rehovot, Israel). […] Infection was obtained by intraperitoneal injection of a logarithmic phase culture of E. coli 25922 (1.3±0.2×10^6 CFU permouse in 0.3 ml PBS). […] Infection control mice were injected with the PBS vehicle. Mouse survival was monitored for up to 7 days after treatment. Statistical analyses were performed by paired Student's t test, at α=0.05.

[15] = test system: Klebsiella pneumoniae 1287; assay: Mouse peritonitis-sepsis model; type: in vivo; details: for survival frequency: neutropenic ICR mice infected i.p.
[16] = test system: Escherichia coli 25922; assay: Mouse thigh infection model; type: in vivo; details: normal mice inoculated intramuscularly, treated s.c. 1 hour thereafter, CFU 24 hours post-treatment
Experimental: (§4) Mouse thigh infection model was afforded from normal ICR mice, which were inoculated intramuscularly and treated subcutaneously 1 hour thereafter with a tested compound or polymyxin B (PMB; Sigma-Aldrich) as described elsewhere. P values were calculated using a 1-tailed t test (assuming unequal variance). A P value of <0.05 is considered statistically significant.

[17] = test system: Klebsiella pneumoniae 1287; assay: Mouse thigh infection model; type: in vivo; details: normal mice inoculated intramuscularly, treated s.c. 1 hour thereafter
Experimental: as §4

[18] = test system: wild-type isogenic strain; assay: MIC on wild-type isogenic strain; type: cell-based; details: Escherichia coli, data not shown
From the text: The following strains were used for the studies below: Escherichia coli strain ML-35p (American Type Culture Collection [ATCC]; […]. The following gram-positive species was investigated: methicillin-resistant Staphylococcus aureus clinical isolate USA300 10017 (a gift from Dr. Gili Regev-Yochay, Infectious Disease Unit, Sheba Medical Center, Israel). Additional Escherichia coli strains tested include β-lactamase producer 35218; clinical isolate strains 14182, 14384, and U16327; and two K12 isogenic mutants, AG100 and AG100A. Unless otherwise stated, all bacterial cultures were grown overnight in Luria-Bertani broth (LB).
as §3

[19] = bacteria exposed in vitro to 5 μM Compound B for 15 minutes, neutropenic mice, 3 days post-infection

What does the source list for `CCCCCCCCCC(=O)NC(CCCN)C(=O)NC(CCCN)C(=O)NCCCCCCCCCCCC(=O)NC(CCCN)C(N)=O` (centres unmarked) [Compound B] (Decanoyl-[Orn][Orn][12Ado][Orn]-NH2; configuration not given here)?
Q, charge at physiological pH [1]: 3; CAC, critical aggregation concentration [2]: >100 µM; CC50 at 3 h [3]: > 100 µM; MIC [4]: > 50 µM; MIC [5]: > 50 µM; MIC [6]: > 50 µM; MIC [7]: > 50 µM; MIC [8]: 50 µM (≈ 35.6 µg/mL); MIC [9]: 50 µM (≈ 35.6 µg/mL); MIC [10]: > 50 µM; MIC [11]: > 50 µM; MBC [12]: > 50 µM; adverse effects at highest tested dose [13]: did not result in any visible adverse effect; animal survival after infection with pretreated bacteria [14, 19]: 40%; survival rate ([14]; neutropenic ICR mice infected i.p., lower dose administrated twice (1 and 6 hours after inoculation)): 70%; mice protected from fatal sepsis (survival) ([14]; neutropenic ICR mice infected i.p., s.c. single dose 1 hour after inoculation): 40%; mice protected from developing sepsis ([14]; neutropenic ICR mice, Compound B […] s.c. alone, 1 hour after infection): 36%; animal survival after infection with pretreated bacteria [15, 19]: 70%; survival frequency ([15]; s.c. double doses): 90%; survival frequency ([15]; s.c. single dose): 60%; reduction of the number of inoculated E. coli [16]: 80%; effect on proliferation in thigh [17]: significantly inhibited proliferation; MIC [18]: > 50 µM
